{
  "source": "patent US20240358665A1",
  "about": "“SMALL MOLECULE MELPHALAN HYDROGEL AND METHOD FOR PREPARING THE SAME” (Changzhi Medical College, priority 2024, published 2024)",
  "experiment": "Change of transmittance over time at 790 nm (ultraviolet spectrophotometer)",
  "type": "physicochemical",
  "settings": "melphalan dissolved in physiological saline (FIG. 5: 0.9% NaCl, content 2%)",
  "method": "The small molecule melphalan hydrogels prepared in Embodiments 1 to 3 of the present disclosure are tested for transmittance, and the specific testing steps are as follows: • Prepare small molecule melphalan solutions according to the methods in Embodiments 1 to 3 above, take 3 mL of the solution and place it in a glass dish, and place the glass dish in an ultraviolet spectrophotometer, and measure the change of transmittance over time, at 790 nm. The phenomenon that the transmittance gradually decreases from 100% (solution state) to less than 10% proves that the small molecule melphalan solution is transformed into a hydrogel.",
  "data": [
    {"smiles": "N[C@@H](Cc1ccc(N(CCCl)CCCl)cc1)C(=O)O", "note": "[melphalan, Melphalan]", "values": [
      {"measurement": "transmittance after gelation (falls from 100% in solution state)", "result": "less than 10%"}
    ]}
  ]
}
